Results as given in US20260347843A1, “NERVOUS SYSTEM DELIVERY ENHANCER” (priority 2022, published 2026).

Tests used:
Mapt mRNA = Mapt mRNA expression level in the hippocampus after intraventricular administration (target gene suppression effect); type: in vivo, mouse; conditions: 7 days
Protocol: Seven-week-old female ICR mice anesthetized with 2.5 to 4% isoflurane were fixed to a brain stereotaxic apparatus. Then, skin between the ears was cut open 2 to 3 cm anteroposteriorly, and perforated 1 mm leftward and 0.2 mm posteriorly from the bregma using a 1 mm diameter drill. A Hamilton syringe was filled with the nucleic acid agent. Through the perforated site, a needle was inserted approximately 3 mm deep. The ASO at a dose of 0.95 nmol (5 μg) per mouse was administered into the left lateral ventricle (n=4 to 7/group). The group to which ASO and TGN-073 were coadministered (hereinafter, the group is referred to as the “ASO/TGN-073 coadministration group”) means that ASO mixed with TGN-073 was administered. […]
Next, quantitative RT-PCR was performed with TaqMan (Roche Applied Science). Primers used in quantitative RT-PCR were products designed and manufactured by Thermo Fisher Scientific Inc. (formerly known as Life Technologies Corp.) on the basis of the various numbers of genes. […] The ratio of the expression amount of Malat1 RNA to the expression amount of Actb mRNA (internal standard gene) was calculated, and a value standardized with respect to the value of the PBS-treated group was determined as a relative Malat1 RNA level. […]

[1] = Evaluation of central nervous system toxicity (acute tolerability score); type: in vivo, mouse; conditions: intraventricular
Protocol: On the ASO described in Table 2, the preparation of the nucleic acid, an in vivo experiment, and the evaluation of the target gene suppression effect were performed by the same methods as in Example 1. In this Example, however, the dose of the nucleic acid agent per mouse was 9.4 nmol (50 μg).
By the below-described methods, evaluation of central nervous system toxicity and evaluation of motor function were performed on mice after intraventricular administration.
In the evaluation of central nervous system toxicity, the behavior was evaluated, using the scoring system shown in FIG. 6, at 30 minutes, 1 hour, and 2 hours after the intraventricular administration. According to the scoring system shown in FIG. 6, the behaviors classified into five categories were evaluated (Categories 1 to 5 in FIG. 6). Each category comprises two behavior evaluation items. Each behavior evaluation item is rated in five stages from 0 to 4 points (Scores 0 to 4 in FIG. 6). A normal behavior is given 0 point, and higher toxicity is given a higher score. In each category, the higher score in the two behavior evaluation items is adopted as the score for the category. The total value of the scores for the five categories is defined as an acute tolerability score (0 to 20 points).

Sod1 mRNA = Sod1 mRNA expression level in the hippocampus after intraventricular administration of siRNA; type: in vivo, mouse; conditions: coadministered with siRNA (7.0 nmol, 100 μg), 7 days
[2] = VHH antibody concentration in brain tissue after intraventricular administration (Alexa 647 fluorescence); type: in vivo; conditions: coadministered with VHH antibody (29 μmol/mouse), TGN-073 250 μg/mouse, left hippocampus, left occipital cortex, left basal ganglia, 3 hours
Protocol: In this Example, a fluorescence-labeled camelized single domain antibody (VHH antibody; Alpaca anti-Rabbit IgG Nano (VHH) Recombinant Secondary Antibody, Alexa Fluor (trademark)647, #SA5-10327, Invitrogen) alone or in combination with TGN-073 (250 μg/mouse) was intraventricularly administered at a dose of […] to an 8-week-old ICR mouse (female). Hereinafter, the mice to which the VHH antibody alone was intraventricularly administered are referred to as the “VHH antibody single administration group”, and the mice to which the VHH antibody and TGN-073 were intraventricularly administered together are referred to as the “VHH antibody/TGN-073 coadministration group”. Brain tissue samples of the left hippocampus, left occipital cortex, and left basal ganglia were collected from the mice at 3 hours after the intraventricular administration. Using a fluorescence plate reader (M1000Pro, Tecan Group Ltd.), the Alexa 647 fluorescence intensity per brain weight was measured to thereby evaluate the concentration of the VHH antibody in each brain tissue.

[3] = IgG antibody concentration in left hippocampus after intraventricular administration (Alexa 647 fluorescence); type: in vivo; conditions: coadministered with IgG antibody (10 μg/mouse), TGN-073 250 μg/mouse, 3 hours
Protocol: In this Example, an Alexa 647 fluorescence-labeled IgG antibody (Goat anti-Rabbit IgG (H+L) Highly Cross-Adsorbed Secondary Antibody, Alexa Fluor (trademark)647, #A-21245, Invitrogen) alone or in combination with TGN-073 (250 μg/mouse) was administered at a dose of 10 μg/mouse to the left lateral ventricle of an 8-week-old ICR mouse (female). Hereinafter, the mice to which the IgG antibody alone was intraventricularly administered are referred to as the “IgG antibody single administration group”, and the mice to which the IgG antibody and TGN-073 were intraventricularly administered together are referred to as the “IgG/TGN-073 coadministration group”. Brain tissue samples of the left hippocampus were collected from the mice at 3 hours after the intraventricular administration. Using a fluorescence plate reader (M1000Pro, Tecan Group Ltd.), the Alexa 647 fluorescence intensity per brain weight was measured to thereby evaluate the concentration of the IgG antibody.

Aquaporin-4 = conditions: as disclosed in WO2017/150704 and Huber V. J. et al., NeuroReport, 2018; cited from earlier work

In the case of O=S(=O)(Nc1ncccc1OCc1ccccc1)c1ccccc1 [TGN-073, N-(3-benzyloxypyridin-2-yl)-benzene-sulfonamide], the “Target gene (Mapt) suppression effect in the hippocampus vs ASO single administration” value (Mapt mRNA; Example 7, coadministered with Mapt-targeting ASO of Table 6 (9.4 nmol, 50 μg), TGN-073-mes 0.125 mg/mouse per method) is reported as “marked enhancement”, the “Target gene (Mapt) suppression effect in the hippocampus vs ASO single administration” value (Mapt mRNA; coadministered with Mapt-targeting ASO of Table 2 (9.4 nmol, 50 μg)) is reported as “marked augmentation” and the “Central nervous system toxicity” value ([1]; TGN-073 single administration, 30 minutes, 1 hour, and 2 hours) is reported as “no toxicity”. The Acute tolerability score ([1]; TGN-073 single administration, 30 minutes, 1 hour, and 2 hours, scale 0 to 20 points) was 0, the “Acute tolerability score vs ASO single administration” value ([1]; coadministered with Mapt-targeting ASO (50 μg), 30 minutes, 1 hour, 2 hours) was “substantially the same acute tolerability score as the ASO single administration group” and the “Augmentation of neurotoxicity by TGN-073 coadministration” value ([1]; coadministered with Mapt-targeting ASO) was “no recognizable augmentation of neurotoxicity at all”. For the same molecule, the “Target gene (Sod1) suppression effect in the brain (hippocampus) vs siRNA single administration” value (Sod1 mRNA) was “marked augmentation”, the “VHH antibody concentration in the central nervous system vs VHH antibody single administration” value [2] was “dramatic increase” and the “IgG antibody concentration in the central nervous system (left hippocampus) vs IgG antibody single administration” value [3] was “dramatic increase”. For the same molecule, the “Promotion of the function of Aquaporin-4” value (Aquaporin-4) was “can promote the function of Aquaporin-4”.
